Data taken from patent publication US20240109853A1 (Shanghai Yao Yuan Biotechnology Co., Ltd., priority 2020, published 2024).

target: ALPK1 (Homo sapiens (Human), UniProt Q96QP1); assay: ALPK1 in vitro kinase assay (HTRF of TIFA phosphorylation); type: biochemical; conditions: not given
Description: In embodiments, a compound of Formula I, or a subembodiment described herein, is an inhibitor of ALPK1 as measured, for example, in an in vitro kinase assay, or an assay designed to measure the activation of downstream targets of ALPK1 pathway activation, for example NFkB transcriptional activation and the secretion of proinflammatory cytokines and chemokines, such as IL-8, which is also referred to as CXCL-8. In general, the computer program XL fit was used for data analysis, including non-linear regression analysis. The half maximal inhibitory concentration (IC50) was used as the measure of a compound's effectiveness in the assays. IC50 values were determined using the following logistic equation Y=min+(max−min)/(1+(X/IC50^−hillslpoe), where Y is the value at the compound concentration, X. The concentration response curve fitting was conducted using GraphPad Prism version 6.00 software.
ALPK1 kinase activity was measured in an in vitro assay using ADP-Heptose as the ALPK1 ligand and activator of its kinase activity and TIFA protein as the ALPK1 phosphorylation substrate. Since phosphorylated TIFA proteins oligomerize, Homogeneous Time-Resolved Fluorescence (HTRF) was used to measure protein:protein interaction between HA-tagged TIFA proteins as an indicator of TIFA phosphorylation.
In brief, dose-response studies were performed with HEK293 cells cultured in Dulbecco's Modified Eagle Medium (DMEM) supplemented 10% fetal bovine serum (FBS, Hyclone™) containing antibiotics (pen/strep, G418) in 384-well assay plates. Each well contained 0.1 mg TIFA, ALPK1 (2 nM final concentration in reaction mixture) and kinase buffer (100 mM of HEPES pH 7.4, 4 mM DTT, 40 mM MgCl2, 20 mM of β-Glycerol phosphate disodium salt, 0.4 mM of Na3VO4, 0.16 mg/mL). Titrations of the test compounds were prepared in dimethylsulphoxide (DMSO). The reaction was initiated by addition of ATP and ADP-Heptose.
For HTRF, samples were incubated with a Tb cryptate-labeled anti-HA antibody for capturing HA-tagged proteins according to the manufacturer's instructions (PerkinElmer™, CisBio™) and the fluorescence signal was quantified (Tecan Infinite F NANO+). HTRF signals were calculated as the HTRF ratio (ratio of fluorescence measured at 665 nm and 620 nm)×104 (thereby using the signal at 620 nm as an internal standard).
IC50 values were determined using 3- or 4-parameter logistic equation using GraphPad Prism version 6.00. The reference compound, A027, was used as a positive control for each plate.

ALPK1, sequence (Q96QP1 whole entry): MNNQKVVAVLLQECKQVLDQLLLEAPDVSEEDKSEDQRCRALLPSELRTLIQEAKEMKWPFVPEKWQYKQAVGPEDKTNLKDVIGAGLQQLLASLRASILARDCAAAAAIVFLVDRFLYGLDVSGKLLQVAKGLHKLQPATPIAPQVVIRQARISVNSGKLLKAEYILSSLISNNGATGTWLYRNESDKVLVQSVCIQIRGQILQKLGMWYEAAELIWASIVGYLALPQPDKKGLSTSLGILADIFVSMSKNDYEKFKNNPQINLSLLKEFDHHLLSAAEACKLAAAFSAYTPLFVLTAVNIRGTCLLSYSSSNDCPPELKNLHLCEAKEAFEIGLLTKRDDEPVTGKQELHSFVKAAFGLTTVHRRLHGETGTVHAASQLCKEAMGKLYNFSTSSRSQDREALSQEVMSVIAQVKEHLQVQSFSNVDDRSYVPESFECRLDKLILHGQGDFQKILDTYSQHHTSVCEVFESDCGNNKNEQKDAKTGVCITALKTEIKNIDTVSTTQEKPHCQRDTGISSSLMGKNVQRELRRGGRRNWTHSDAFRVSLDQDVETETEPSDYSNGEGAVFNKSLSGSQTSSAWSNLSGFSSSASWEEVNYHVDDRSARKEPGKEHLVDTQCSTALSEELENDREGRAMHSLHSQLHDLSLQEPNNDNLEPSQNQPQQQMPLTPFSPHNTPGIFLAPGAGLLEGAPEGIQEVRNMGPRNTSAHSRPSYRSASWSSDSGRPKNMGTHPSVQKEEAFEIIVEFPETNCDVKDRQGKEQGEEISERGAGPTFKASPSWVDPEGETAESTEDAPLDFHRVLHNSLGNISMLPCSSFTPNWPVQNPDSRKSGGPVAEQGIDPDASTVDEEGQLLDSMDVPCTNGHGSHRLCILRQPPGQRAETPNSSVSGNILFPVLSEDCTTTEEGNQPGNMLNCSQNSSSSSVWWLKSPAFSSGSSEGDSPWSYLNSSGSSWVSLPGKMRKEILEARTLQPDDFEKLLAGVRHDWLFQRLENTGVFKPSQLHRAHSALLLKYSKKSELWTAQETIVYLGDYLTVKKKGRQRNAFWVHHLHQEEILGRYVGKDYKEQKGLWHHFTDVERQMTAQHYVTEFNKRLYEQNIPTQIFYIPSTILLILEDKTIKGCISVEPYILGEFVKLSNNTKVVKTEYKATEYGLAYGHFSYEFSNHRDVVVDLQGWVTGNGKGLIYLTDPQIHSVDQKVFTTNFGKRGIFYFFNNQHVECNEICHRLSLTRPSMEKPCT

SMILES	IC50 [nM]
CC(C)(c1ccc(Br)cc1)c1csc(NC(=O)NCc2cnc(N3CCNC(=O)C3)nc2)n1 [Example A113, 1-(4-(2-(4-bromophenyl)propan-2-yl)thiazol-2-yl)-3-((2-(3-oxopiperazin-1-yl)pyrimidin-5-yl)methyl)urea]	126
C#CC(C)(c1ccc(Cl)cc1)c1csc(NC(=O)N(CCO)CCO)n1 (stereo not drawn) [Example A267, 3-(4-(2-(4-chlorophenyl)but-3-yn-2-yl)thiazol-2-yl)-1,1-bis(2-hydroxyethyl)urea]	171
Cc1nc(CNC(=O)Nc2nc(C(C)(C)c3ccc(Br)cc3)cs2)cc(N2CCNCC2)n1 [Example A095, 1-(4-(2-(4-bromophenyl)propan-2-yl)thiazol-2-yl)-3-((2-methyl-6-(piperazin-1-yl)pyrimidin-4-yl)methyl)urea]	32

same assay, conditions: ALPK1 2 nM, TIFA substrate, ADP-Heptose activator, HTRF readout

SMILES	IC50 [nM]
COc1ccc(C(C)(C)c2csc(NC(=O)c3ccc(N4CCC(O)C4)cc3)n2)cc1 (stereo not drawn) [Example B009, 4-(3-hydroxypyrrolidin-1-yl)-N-(4-(2-(4-methoxyphenyl)propan-2-yl)thiazol-2-yl)benzamide]	951
COCC(C)(c1ccc(Br)cc1)c1csc(NC(=O)c2c(F)cc(N3CCNCC3)cc2F)n1 (stereo not drawn) [Example C027, N-(4-(2-(4-bromophenyl)-1-methoxypropan-2-yl)thiazol-2-yl)-2,6-difluoro-4-(piperazin-1-yl)benzamide]	100
COc1ccc(C(C)(C)c2csc(NC(=O)c3ccc(N4CCNCC4C)cc3)n2)cc1 (stereo not drawn) [Example B014]	300
COc1ccc(C(C)(C)c2csc(NC(=O)c3cccc(CN4CCNCC4)c3)n2)cc1 [Example B005, N-(4-(2-(4-methoxyphenyl)propan-2-yl)thiazol-2-yl)-3-(piperazin-1-ylmethyl)benzamide]	215
C#CC(CC)(c1ccc(Br)cc1)c1csc(NC(C)=O)n1 (stereo not drawn) [Example D008, N-(4-(3-(4-bromophenyl)pent-1-yn-3-yl)thiazol-2-yl)acetamide]	143
COC[C@](C)(c1ccccc1)c1csc(NC(=O)c2c(F)cc(N3CCNCC3)cc2F)n1 [Example C017, (R)-2,6-difluoro-N-(4-(1-methoxy-2-phenylpropan-2-yl)thiazol-2-yl)-4-(piperazin-1-yl)benzamide]	67
C#CC(C)(c1ccc(Cl)cc1)c1csc(NC(=O)c2c(F)cc(N3CCNC(CO)C3)cc2F)n1 (stereo not drawn) [Example B083, N-(4-(2-(4-chlorophenyl)but-3-yn-2-yl)thiazol-2-yl)-2,6-difluoro-4-(3-(hydroxymethyl)piperazin-1-yl)benzamide]	78
C#C[C@@](C)(c1ccc(F)cc1)c1csc(NC(=O)c2ccc(N3CCNCC3CO)cc2)n1 (stereo in doubt) [Example B071, N-[4-[1-(4-fluorophenyl)-1-methyl-prop-2-ynyl]thiazol-2-yl]-4-[2-(hydroxymethyl)piperazin-1-yl]benzamide]	60
C#CC(C)(c1ccc(F)cc1)c1csc(NC(=O)c2c(F)cc(-c3cnc(CN)cn3)cc2F)n1 (stereo not drawn) [Example B104, 4-(5-(aminomethyl)pyrazin-2-yl)-2,6-difluoro-N-(4-(2-(4-fluorophenyl)but-3-yn-2-yl)thiazol-2-yl)benzamide]	1470
C#CC(CC)(c1ccc(Cl)cc1)c1csc(NC(=O)c2c(F)cc(N3CCNCC3)cc2F)n1 (stereo not drawn) [Example C047, N-(4-(3-(4-chlorophenyl)pent-1-yn-3-yl)thiazol-2-yl)-2,6-difluoro-4-(piperazin-1-yl)benzamide]	131
COc1ccc(C(C)(C)c2csc(NC(=O)c3ccc(N4CCC(N)C4)nc3)n2)cc1 (stereo not drawn) [Example B043, 6-(3-aminopyrrolidin-1-yl)-N-(4-(2-(4-methoxyphenyl)propan-2-yl)thiazol-2-yl)nicotinamide]	140
COc1ccc(C(C)(C)c2cnc(NC(=O)c3ccc(N4CCNCC4)c(F)c3)s2)cc1 [Example B038, 3-fluoro-N-(5-(2-(4-methoxyphenyl)propan-2-yl)thiazol-2-yl)-4-(piperazin-1-yl)benzamide]	216
